Paper PMC4580987, “Catalytic site inhibition of insulin-degrading enzyme by a small molecule induces glucose intolerance in mice” (Nature Communications, 2015)
“And” between values parts separate entries of the source, which are not always exact repeats. Equal values may be shown once.

Experiment: Pharmacokinetics in mice, intraperitoneal
Format: in vivo
Conditions: C57Bl6/N, mouse, plasma, 30 mg kg^−1, ip, male mice
Method: Three mice per time point were anesthetized with isoflurane and aliquots taken from the retroorbital sinus using sampling heparinated tubes (4 °C) at 10, 20, 30 min, 1, 2 and 4 h after administration of a single dose of ligands. The blood samples were centrifuged (5,000g, 15 min) for plasma separation. Plasma samples were thawed on ice. Aliquots of 50 μl were precipitated with 450 μl of ice-cold acetonitrile containing (R)-N-[3-(1-Hydroxycarbamoylmethyl-2-naphthalen-2-yl-ethyl)-3H-[1,2,3]triazol-4-ylmethyl]-benzamide (0.5 μM) used as internal standard. The samples were vigorously mixed with a vortex and centrifuged at 10,000 r.p.m. at 4 °C for 10 min, and the supernatants were transferred into tubes for LC−MS−MS analysis (Supplementary Table 2). Spiked standard solutions (10, 50, 100, 500, 1,000, 5,000, 10,000 and 50,000 nM) were prepared the same way. The protocol was approved by the ethical comitee CEEA Nord Pas de Calais (CEEA75).

## O=C(C[C@@H](Cc1ccc2ccccc2c1)n1cc(CNC(=O)c2ccc(F)cc2)nn1)NO [Compound 1]
  Tmax: 10 min
  half-life: 80 min
read-out: AUC0→4h
  AUC(0-t): 4270 ng·h/mL
DMSO solution
  Cmax: 4100 ng/mL and 9.2 µM
